Experimental data published in PubChem BioAssay (NCI).
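48-hour exposure; five concentrations; linearly interpolated endpoints. TGI: concentration producing complete growth inhibition.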

Legend:
Assay in all cases: NCI tumour cell line growth inhibition, 48 h
OVCAR-5 ovarian = test system: OVCAR-5 ovarian
SW-620 colon = test system: SW-620 colon
IGROV1 ovarian = test system: IGROV1 ovarian
UACC-257 melanoma = test system: UACC-257 melanoma
UO-31 renal = test system: UO-31 renal
MOLT-4 leukemia = test system: MOLT-4 leukemia
NCI-H226 lung = test system: NCI-H226 lung
HOP-92 NSCLC = test system: HOP-92 NSCLC
TK-10 renal = test system: TK-10 renal
SN12C renal = test system: SN12C renal
SK-MEL-2 melanoma = test system: SK-MEL-2 melanoma
CCRF-CEM leukemia = test system: CCRF-CEM leukemia
SF-268 CNS = test system: SF-268 CNS
OVCAR-3 ovarian = test system: OVCAR-3 ovarian
SR leukemia = test system: SR leukemia
SF-539 CNS = test system: SF-539 CNS
NCI-H23 lung = test system: NCI-H23 lung
HS 578T breast = test system: HS 578T breast
KM12 colon = test system: KM12 colon
ACHN renal = test system: ACHN renal
MCF7 breast = test system: MCF7 breast
MDA-N = test system: MDA-N
BT-549 breast = test system: BT-549 breast
HCC-2998 colon = test system: HCC-2998 colon
U251 CNS = test system: U251 CNS
OVCAR-4 ovarian = test system: OVCAR-4 ovarian
EKVX NSCLC = test system: EKVX NSCLC
A498 renal = test system: A498 renal
M14 melanoma = test system: M14 melanoma
T-47D breast = test system: T-47D breast
HCT-116 colon = test system: HCT-116 colon
HT29 colon = test system: HT29 colon
MDA-MB-435 = test system: MDA-MB-435
SF-295 CNS = test system: SF-295 CNS
RXF 393 renal = test system: RXF 393 renal
HOP-62 NSCLC = test system: HOP-62 NSCLC
SK-MEL-5 melanoma = test system: SK-MEL-5 melanoma
PC-3 prostate = test system: PC-3 prostate
MDA-MB-231 breast = test system: MDA-MB-231 breast
NCI-H460 lung = test system: NCI-H460 lung
NCI/ADR-RES ovarian = test system: NCI/ADR-RES ovarian
UACC-62 melanoma = test system: UACC-62 melanoma
OVCAR-8 ovarian = test system: OVCAR-8 ovarian
COLO 205 colon = test system: COLO 205 colon
MALME-3M melanoma = test system: MALME-3M melanoma
HL-60(TB) leukemia = test system: HL-60(TB) leukemia
HCT-15 colon = test system: HCT-15 colon
LOX IMVI melanoma = test system: LOX IMVI melanoma
786-0 renal = test system: 786-0 renal
RPMI-8226 leukemia = test system: RPMI-8226 leukemia
SNB-19 CNS = test system: SNB-19 CNS
SK-OV-3 ovarian = test system: SK-OV-3 ovarian
SK-MEL-28 melanoma = test system: SK-MEL-28 melanoma
CAKI-1 renal = test system: CAKI-1 renal
NCI-H522 lung = test system: NCI-H522 lung
DU-145 prostate = test system: DU-145 prostate
A549 NSCLC = test system: A549 NSCLC
K-562 leukemia = test system: K-562 leukemia
SNB-75 CNS = test system: SNB-75 CNS

N#Cc1c(N)nc2n[nH]c(N)c2c1-c1ccccc1
TGI (OVCAR-5 ovarian): > 100 µM | TGI (SW-620 colon): > 100 µM | TGI (IGROV1 ovarian): 13.4 µM | TGI (UACC-257 melanoma): > 83.6 µM | TGI (UO-31 renal): 32.3 µM | TGI (MOLT-4 leukemia): 32.4 µM | TGI (NCI-H226 lung): > 79 µM | TGI (HOP-92 NSCLC): 8.01 µM | TGI (TK-10 renal): > 27.1 µM | TGI (SN12C renal): 31.8 µM | TGI (SK-MEL-2 melanoma): 12.8 µM | TGI (CCRF-CEM leukemia): > 100 µM | TGI (SF-268 CNS): 29.2 µM | TGI (OVCAR-3 ovarian): 20.5 µM | TGI (SR leukemia): > 60.1 µM | TGI (SF-539 CNS): 21.1 µM | TGI (NCI-H23 lung): 50.2 µM | TGI (HS 578T breast): 24.2 µM | TGI (KM12 colon): 79.5 µM | TGI (ACHN renal): 28.9 µM | TGI (MCF7 breast): 24.7 µM | TGI (MDA-N): 33 µM | TGI (BT-549 breast): 40.2 µM | TGI (HCC-2998 colon): > 57 µM | TGI (U251 CNS): 92.2 µM | TGI (OVCAR-4 ovarian): > 100 µM | TGI (EKVX NSCLC): 55 µM | TGI (A498 renal): 5.77 µM | TGI (M14 melanoma): 37.5 µM | TGI (T-47D breast): 3.9 µM | TGI (HCT-116 colon): 46.1 µM | TGI (HT29 colon): 57.7 µM | TGI (MDA-MB-435): 36.1 µM | TGI (SF-295 CNS): 29.7 µM | TGI (RXF 393 renal): 13.2 µM | TGI (HOP-62 NSCLC): 63.9 µM | TGI (SK-MEL-5 melanoma): 26.7 µM | TGI (PC-3 prostate): 35.5 µM | TGI (MDA-MB-231 breast): 38.7 µM | TGI (NCI-H460 lung): > 53.2 µM | TGI (NCI/ADR-RES ovarian): 48.5 µM | TGI (UACC-62 melanoma): 8.02 µM | TGI (OVCAR-8 ovarian): 41.8 µM | TGI (COLO 205 colon): 24.3 µM | TGI (MALME-3M melanoma): 22 µM | TGI (HL-60(TB) leukemia): 71.1 µM | TGI (HCT-15 colon): > 77.8 µM | TGI (LOX IMVI melanoma): 19 µM | TGI (786-0 renal): 69.8 µM | TGI (RPMI-8226 leukemia): > 53.8 µM | TGI (SNB-19 CNS): > 58.8 µM | TGI (SK-OV-3 ovarian): 20.4 µM | TGI (SK-MEL-28 melanoma): 77.2 µM | TGI (CAKI-1 renal): 19.4 µM | TGI (NCI-H522 lung): 18 µM | TGI (DU-145 prostate): 54.2 µM | TGI (A549 NSCLC): > 65.5 µM | TGI (K-562 leukemia): > 100 µM

Cn1c(SCc2c[nH]c3ccccc23)nnc1-c1ccc(Cl)cc1Cl
TGI (OVCAR-5 ovarian): 86.7 µM | TGI (SW-620 colon): > 100 µM | TGI (IGROV1 ovarian): 67.2 µM | TGI (UACC-257 melanoma): 56.1 µM | TGI (UO-31 renal): 82.9 µM | TGI (MOLT-4 leukemia): 27.5 µM | TGI (HOP-92 NSCLC): 53 µM | TGI (TK-10 renal): 47.2 µM | TGI (SN12C renal): 47.5 µM | TGI (SK-MEL-2 melanoma): 36.2 µM | TGI (CCRF-CEM leukemia): 45.4 µM | TGI (SF-268 CNS): > 100 µM | TGI (OVCAR-3 ovarian): 35.1 µM | TGI (SR leukemia): 16.6 µM | TGI (SF-539 CNS): 17.7 µM | TGI (NCI-H23 lung): 69.9 µM | TGI (HS 578T breast): > 100 µM | TGI (KM12 colon): 25.2 µM | TGI (ACHN renal): 96.8 µM | TGI (MCF7 breast): 84.9 µM | TGI (MDA-N): 78.9 µM | TGI (BT-549 breast): 87.5 µM | TGI (HCC-2998 colon): 26.1 µM | TGI (U251 CNS): 38.1 µM | TGI (OVCAR-4 ovarian): 34.2 µM | TGI (EKVX NSCLC): 49.6 µM | TGI (A498 renal): 86.3 µM | TGI (M14 melanoma): 38.1 µM | TGI (T-47D breast): 43.2 µM | TGI (HCT-116 colon): 93 µM | TGI (HT29 colon): 35.5 µM | TGI (MDA-MB-435): 12 µM | TGI (SF-295 CNS): 27.2 µM | TGI (RXF 393 renal): 32.5 µM | TGI (HOP-62 NSCLC): 21.4 µM | TGI (SK-MEL-5 melanoma): 27.5 µM | TGI (PC-3 prostate): 36.5 µM | TGI (MDA-MB-231 breast): 66.3 µM | TGI (NCI-H460 lung): 26.3 µM | TGI (NCI/ADR-RES ovarian): 27.3 µM | TGI (UACC-62 melanoma): 39.3 µM | TGI (OVCAR-8 ovarian): > 100 µM | TGI (COLO 205 colon): 27.4 µM | TGI (SNB-75 CNS): 25.9 µM | TGI (MALME-3M melanoma): 45.8 µM | TGI (HL-60(TB) leukemia): 25.6 µM | TGI (HCT-15 colon): > 100 µM | TGI (LOX IMVI melanoma): 20 µM | TGI (786-0 renal): 68.6 µM | TGI (RPMI-8226 leukemia): 27.1 µM | TGI (SNB-19 CNS): 61.7 µM | TGI (SK-OV-3 ovarian): 59.4 µM | TGI (SK-MEL-28 melanoma): > 100 µM | TGI (CAKI-1 renal): > 100 µM | TGI (NCI-H522 lung): 45.9 µM | TGI (DU-145 prostate): 78.5 µM | TGI (A549 NSCLC): 48.5 µM | TGI (K-562 leukemia): 24.9 µM
